Measured values published in PMC7311426, “An amphipathic peptide with antibiotic activity against multidrug-resistant Gram-negative bacteria” (Nature Communications, 2020).
Converted amounts (≈) assume the structure as drawn. Read-outs that look alike come from different tables or passages of the source.

Experiments:
[1] = system: L. monocytogenes; assay: microbe, parasite or virus in culture
Method in brief: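 Broth microdilution in MHB, 2-fold 12-point series from 128 or 64 down to 0.06 or 0.03 μg mL^−1, 5 × 10^5 CFU mL^−1. Extra runs in CAMHB per CLSI and in MHB with 1% agarose; n ≥ 6.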

[2] = system: E. coli; parameters: method as in Hasman H, et al. Euro. Surveill. (2015) 20:49; conditions: E. coli ESBL20150072, mcr-1 pos; ESBL; CAMHB; comparator antibiotics; ref Hasman H, et al. Euro. Surveill. (2015) 20:49; cited from earlier work
[3] = system: P. aeruginosa; assay: microbe, parasite or virus in culture; format: cell-based, Pseudomonas aeruginosa; parameters: MIC, Survanta (5%) replicates: unit not given beside the values; conditions: for MIC: Pseudomonas aeruginosa
[4] = system: K. pneumoniae; assay: microbe, parasite or virus in culture; format: cell-based, Klebsiella pneumoniae; conditions: for MIC: Klebsiella pneumoniae
[5] = system: A. baumannii ATCC 19636; assay: microbe, parasite or virus in culture; format: cell-based, Acinetobacter baumannii; conditions: for MIC, Survanta (5%) / MIC, Survanta (5%) replicates: A. baumannii ATCC 19636, type strain, BMD with 5% Survanta lung surfactant; for MIC, Survanta (5%): mode, or median where no mode, n=4 to 6, where n=2 differs the higher value; for MIC: Acinetobacter baumannii, ATCC19636, read-out: MIC, Survanta (5%), A. baumannii ATCC 19636 type strain, n=2 to 6, mode or median
[6] = P. aeruginosa FADDI-070, MDR, PmxR, BMD with 5% Survanta lung surfactant, mode, or median where no mode, n=4 to 6, where n=2 differs the higher value
[7] = P. aeruginosa FADDI-070, MDR, PmxR, BMD with 5% Survanta lung surfactant, replicate 1
[8] = P. aeruginosa FADDI-070, MDR, PmxR, BMD with 5% Survanta lung surfactant, replicate 2
[9] = P. aeruginosa FADDI-070, MDR, PmxR, BMD with 5% Survanta lung surfactant, replicate 3
[10] = P. aeruginosa FADDI-070, MDR, PmxR, BMD with 5% Survanta lung surfactant, replicate 4
[11] = P. aeruginosa FADDI-070, MDR, PmxR, BMD with 50% human serum, replicate 1
[12] = P. aeruginosa FADDI-070, MDR, PmxR, BMD with 50% human serum, replicate 2
[13] = P. aeruginosa FADDI-070, MDR, PmxR, BMD with 50% human serum, where n=2 differs the higher value is recorded
[14] = K. pneumoniae ATCC 700603, ESBL, OXA-2/SHV-18, BMD with 5% Survanta lung surfactant, mode, or median where no mode, n=4 to 6, where n=2 differs the higher value
[15] = K. pneumoniae ATCC 700603, ESBL, OXA-2/SHV-18, BMD with 5% Survanta lung surfactant, replicate 1
[16] = K. pneumoniae ATCC 700603, ESBL, OXA-2/SHV-18, BMD with 5% Survanta lung surfactant, replicate 2
[17] = K. pneumoniae ATCC 700603, ESBL, OXA-2/SHV-18, BMD with 50% human serum, mode, or median where no mode, n=4 to 6, where n=2 differs the higher value
[18] = K. pneumoniae ATCC 700603, ESBL, OXA-2/SHV-18, BMD with 50% human serum, replicate 1
[19] = K. pneumoniae ATCC 700603, ESBL, OXA-2/SHV-18, BMD with 50% human serum, replicate 2
[20] = K. pneumoniae BAA-2146, NDM-1, BMD with 5% Survanta lung surfactant, mode, or median where no mode, n=4 to 6, where n=2 differs the higher value
[21] = K. pneumoniae BAA-2146, NDM-1, BMD with 5% Survanta lung surfactant, replicate 1
[22] = K. pneumoniae BAA-2146, NDM-1, BMD with 5% Survanta lung surfactant, replicate 2
[23] = K. pneumoniae BAA-2146, NDM-1, BMD with 5% Survanta lung surfactant, replicate 3
[24] = K. pneumoniae BAA-2146, NDM-1, BMD with 5% Survanta lung surfactant, replicate 4
[25] = ATCC13883, read-out: MIC, Serum (50%)
[26] = ATCC700603, read-out: MIC, Serum (50%)
[27] = ATCC700603, read-out: MIC, Survanta (5%)
[28] = BAA2146, read-out: MIC, Survanta (5%)

CNC(C)C1CCC(N)C(OC2C(N)CC(N)C(OC3OCC(C)(O)C(NC)C3O)C2O)O1 (centres unmarked) [Gentamicin, gentamicin, reference compound]
MIC ([1]; Listeria monocytogenes, ATCC19112, read-out: BMD MIC): 0.125 µg/mL (≈ 0.262 µM) | BMD MIC [2]: >8 µg/mL

O=C(O)c1cn(C2CC2)c2cc(N3CCNCC3)c(F)cc2c1=O [Ciprofloxacin, ciprofloxacin]
MIC, Survanta (5%) ([3]; P. aeruginosa ATCC 27853, control strain, BMD with 5% Survanta lung surfactant, mode, or median where no mode, n=4 to 6, where n=2 differs the higher value): 1 | MIC, Survanta (5%) replicates ([3]; P. aeruginosa ATCC 27853, control strain, BMD with 5% Survanta lung surfactant, replicate 1): 1 | MIC, Survanta (5%) replicates ([3]; P. aeruginosa ATCC 27853, control strain, BMD with 5% Survanta lung surfactant, replicate 2): 1 | MIC, Survanta (5%) replicates ([3]; P. aeruginosa ATCC 27853, control strain, BMD with 5% Survanta lung surfactant, replicate 3): 0.5 | MIC, Survanta (5%) replicates ([3]; P. aeruginosa ATCC 27853, control strain, BMD with 5% Survanta lung surfactant, replicate 4): 0.5 | MIC, Serum (50%) replicates ([3]; P. aeruginosa ATCC 27853, control strain, BMD with 50% human serum, replicate 1): 0.125 | MIC, Survanta (5%) [3, 6]: 0.5 | MIC, Survanta (5%) replicates [3, 7]: 1 | MIC, Survanta (5%) replicates [3, 8]: 1 | MIC, Survanta (5%) replicates [3, 9]: 0.125 | MIC, Survanta (5%) replicates [3, 10]: 0.5 | MIC, Serum (50%) replicates [3, 11]: 0.06 | MIC, Serum (50%) replicates [3, 12]: 0.06 | MIC, Serum (50%) [3, 13]: 0.06 | MIC ([3]; ATCC27853, read-out: MIC, Survanta (5%), P. aeruginosa ATCC 27853 control strain, n=2 to 6, mode or median): 1 µg/mL (≈ 3.02 µM) | MIC ([3]; read-out: MIC, Serum (50%)): 0.06 µg/mL (≈ 0.181 µM) | MIC ([3]; read-out: MIC, Survanta (5%)): 0.5 µg/mL (≈ 1.51 µM) | MIC, Survanta (5%) replicates ([4]; K. pneumoniae ATCC 13883, type strain, BMD with 5% Survanta lung surfactant, replicate 1): 0.5 | MIC, Survanta (5%) replicates ([4]; K. pneumoniae ATCC 13883, type strain, BMD with 5% Survanta lung surfactant, replicate 2): 0.5 | MIC, Survanta (5%) replicates ([4]; K. pneumoniae ATCC 13883, type strain, BMD with 5% Survanta lung surfactant, replicate 3): 0.125 | MIC, Survanta (5%) replicates ([4]; K. pneumoniae ATCC 13883, type strain, BMD with 5% Survanta lung surfactant, replicate 4): 0.125 | MIC, Serum (50%) replicates ([4]; K. pneumoniae ATCC 13883, type strain, BMD with 50% human serum, replicate 1): ≤0.03 | MIC, Serum (50%) replicates ([4]; K. pneumoniae ATCC 13883, type strain, BMD with 50% human serum, replicate 2): ≤0.03 | MIC, Serum (50%) ([4]; K. pneumoniae ATCC 13883, type strain, BMD with 50% human serum, where n=2 differs the higher value is recorded): ≤0.03 | MIC, Survanta (5%) [4, 14]: 1 | MIC, Survanta (5%) replicates [4, 15]: 2 | MIC, Survanta (5%) replicates [4, 16]: 2 | MIC, Survanta (5%) replicates ([4]; K. pneumoniae ATCC 700603, ESBL, OXA-2/SHV-18, BMD with 5% Survanta lung surfactant, replicate 3): 0.5 | MIC, Survanta (5%) replicates ([4]; K. pneumoniae ATCC 700603, ESBL, OXA-2/SHV-18, BMD with 5% Survanta lung surfactant, replicate 4): 1 | MIC, Serum (50%) [4, 17]: 0.125 | MIC, Serum (50%) replicates [4, 18]: 0.125 | MIC, Serum (50%) replicates [4, 19]: 0.06 | MIC, Survanta (5%) [4, 20]: >64 | MIC, Survanta (5%) replicates [4, 21]: >64 | MIC, Survanta (5%) replicates [4, 22]: >64 | MIC, Survanta (5%) replicates [4, 23]: >64 | MIC, Survanta (5%) replicates [4, 24]: >64 | MIC [4, 25]: ≤ 0.03 µg/mL | MIC [4, 26]: 0.125 µg/mL (≈ 0.377 µM) | MIC [4, 27]: 1 µg/mL (≈ 3.02 µM) | MIC [4, 28]: > 64 µg/mL | MIC, Survanta (5%) [5]: 1 | MIC, Survanta (5%) replicates ([5]; replicate 2): 1 | MIC, Survanta (5%) replicates ([5]; replicate 3): 1 | MIC, Survanta (5%) replicates ([5]; replicate 4): 1 | MIC [5]: 1 µg/mL (≈ 3.02 µM) | BMD MIC [2]: >2 µg/mL

COc1cc(Cc2cnc(N)nc2N)cc(OC)c1OC [Trimethoprim]
MIC, Serum (50%) [3]: >64 | MIC, Serum (50%) replicates [3]: >64 | MIC, Survanta (5%) [3]: >64 | MIC, Survanta (5%) replicates [3]: >64 | MIC, Survanta (5%) [3, 6]: >64 | MIC, Survanta (5%) replicates [3, 7]: >64 | MIC, Survanta (5%) replicates [3, 8]: >64 | MIC, Survanta (5%) replicates [3, 9]: >64 | MIC, Survanta (5%) replicates [3, 10]: >64 | MIC, Serum (50%) replicates [3, 11]: >64 | MIC, Serum (50%) replicates [3, 12]: 64 | MIC, Serum (50%) [3, 13]: ≥64 | MIC ([3]; ATCC27853, read-out: MIC, Serum (50%)): > 64 µg/mL | MIC ([3]; ATCC27853, read-out: MIC, Survanta (5%)): > 64 µg/mL | MIC ([3]; read-out: MIC, Serum (50%)): ≥ 64 µg/mL | MIC ([3]; read-out: MIC, Survanta (5%)): > 64 µg/mL | MIC, Serum (50%) [4]: 0.5 | MIC, Serum (50%) replicates [4]: 0.5 | MIC, Survanta (5%) [4]: 1 | MIC, Survanta (5%) [4, 14]: 4 | MIC, Survanta (5%) replicates [4, 15]: 4 | MIC, Survanta (5%) replicates [4, 16]: 2 | MIC, Serum (50%) [4, 17]: 32 | MIC, Serum (50%) replicates [4, 18]: 32 | MIC, Serum (50%) replicates [4, 19]: 16 | MIC, Survanta (5%) [4, 20]: >64 | MIC, Survanta (5%) replicates [4, 21]: >64 | MIC, Survanta (5%) replicates [4, 22]: >64 | MIC, Survanta (5%) replicates [4, 23]: >64 | MIC, Survanta (5%) replicates [4, 24]: >64 | MIC [4, 25]: 0.5 µg/mL (≈ 1.72 µM) | MIC ([4]; ATCC13883, read-out: MIC, Survanta (5%)): 1 µg/mL (≈ 3.44 µM) | MIC [4, 26]: 32 µg/mL (≈ 110 µM) | MIC [4, 27]: 4 µg/mL (≈ 13.8 µM) | MIC [4, 28]: > 64 µg/mL | MIC, Survanta (5%) [5]: 32 | MIC, Survanta (5%) replicates ([5]; replicate 1): >64 | MIC, Survanta (5%) replicates ([5]; replicate 2): >64 | MIC, Survanta (5%) replicates ([5]; replicate 3): 16 | MIC, Survanta (5%) replicates ([5]; replicate 4): 32 | MIC [5]: 32 µg/mL (≈ 110 µM)

polymyxin B [PolymyxinB, reference compound]
BMD MIC ([1]; L. monocytogenes ATCC 19112, MHB, mode of 6 replicates): 4 µg/mL | BMD MIC [2]: 4 µg/mL
